Patent publication US6355799B1, “Substituted benzene compounds, process for their preparation, and herbicidal and defoliant compositions containing them” (ISK Americas Incorporated, priority 1997, dated 2002)

How the values were obtained:
Type in all cases: in vivo
[1] = tested on: field corn (Zea mays L., var. Dekalb 535, CORN); assay: Post-emerge test, crop safety; conditions: post-emerge, crop damage rating 0-100 at 14 days after application
Summary of the method: (§1)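 Compounds in acetone were track-sprayed at 187 l/ha, 15–1000 g ai/ha, onto sandy loam pots. Pre-emerge seeds were sown one day before spraying, with surface watering afterwards. Post-emerge plants were at the 2–3 leaf stage and sprayed with 0.25% v/v non-ionic surfactant. Injury was rated 0–100 at 14 days.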

[2] = tested on: upland rice (Oryza sp., var. Tebonnet, RICE); assay: Post-emerge test, crop safety; conditions: post-emerge, crop damage rating 0-100 at 14 days after application
Summary of the method: as §1

[3] = tested on: redroot pigweed (Amaranthus retroflexus, AMARE); assay: Post-emerge test, greenhouse herbicide activity screening; conditions: post-emerge, phytotoxicity rating 0-100 at 14 days after application
Summary of the method: (§2)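 Compounds in acetone were track-sprayed at 15-1000 g ai/ha (187 l/ha) on sandy loam pots: pre-emerge one day after seeding, post-emerge at 2-3 leaf stage with 0.25% v/v non-ionic surfactant. Phytotoxicity was rated 14 days later on a 0 (no damage) to 100 (complete death) scale.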

[4] = tested on: sicklepod (Cassia obtusifolia, CASOB); assay: as above; conditions: post-emerge, phytotoxicity rating 0-100 at 14 days after application
Summary of the method: as §2

[5] = tested on: large crabgrass (Digitaria sanguinalis, DIGSA); assay: as above; conditions: post-emerge, phytotoxicity rating 0-100 at 14 days after application
Summary of the method: as §2

[6] = tested on: velvetleaf (Abutilon theophrasti, ABUTH); assay: as above; conditions: post-emerge, phytotoxicity rating 0-100 at 14 days after application
Summary of the method: as §2

[7] = tested on: johnsongrass (Sorghum halepense, SORHA); assay: as above; conditions: post-emerge, phytotoxicity rating 0-100 at 14 days after application
Summary of the method: as §2

[8] = tested on: green foxtail (Setaria viridis, SETVI); assay: as above; conditions: post-emerge, phytotoxicity rating 0-100 at 14 days after application
Summary of the method: as §2

[9] = tested on: lambsquarters (Chenopodium album, CHEAL); assay: as above; conditions: post-emerge, phytotoxicity rating 0-100 at 14 days after application
Summary of the method: as §2

[10] = tested on: ivyleaf morningglory (Ipomoea hederacea, IPOHE); assay: as above; conditions: post-emerge, phytotoxicity rating 0-100 at 14 days after application
Summary of the method: as §2

[11] = tested on: barnyardgrass (Echinochloa crus-galli, ECHCG); assay: as above; conditions: post-emerge, phytotoxicity rating 0-100 at 14 days after application
Summary of the method: as §2

[12] = tested on: field corn (Zea mays L., var. Dekalb 535, CORN); assay: Pre-emerge test, crop safety; conditions: crop damage, pre-emerge, phytotoxicity rating 0-100 at 14 days after application
Summary of the method: (§3)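 Applied at 15–1000 g ai/ha from acetone in 187 l/ha spray volume. Post-emergence applications included 0.25% v/v non-ionic surfactant and reached plants sown 8–21 days before. Pre-emergence applications were incorporated by surface watering. Efficacy or crop damage was rated on a 0–100 scale after 14 days.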

[13] = tested on: upland rice (Oryza sp., var. Tebonnet, RICE); assay: Pre-emerge test, crop safety; conditions: crop damage, pre-emerge, phytotoxicity rating 0-100 at 14 days after application
Summary of the method: as §3

[14] = tested on: redroot pigweed (Amaranthus retroflexus, AMARE); assay: Pre-emerge test, greenhouse herbicide activity screening; conditions: pre-emerge, phytotoxicity rating 0-100 at 14 days after application
Summary of the method: as §1

[15] = tested on: sicklepod (Cassia obtusifolia, CASOB); assay: as above; conditions: pre-emerge, phytotoxicity rating 0-100 at 14 days after application
Summary of the method: as §1

[16] = tested on: large crabgrass (Digitaria sanguinalis, DIGSA); assay: as above; conditions: pre-emerge, phytotoxicity rating 0-100 at 14 days after application
Summary of the method: as §1

[17] = tested on: velvetleaf (Abutilon theophrasti, ABUTH); assay: as above; conditions: pre-emerge, phytotoxicity rating 0-100 at 14 days after application
Summary of the method: as §1

[18] = tested on: johnsongrass (Sorghum halepense, SORHA); assay: as above; conditions: pre-emerge, phytotoxicity rating 0-100 at 14 days after application
Summary of the method: as §1

[19] = tested on: green foxtail (Setaria viridis, SETVI); assay: as above; conditions: pre-emerge, phytotoxicity rating 0-100 at 14 days after application
Summary of the method: as §1

[20] = tested on: lambsquarters (Chenopodium album, CHEAL); assay: as above; conditions: pre-emerge, phytotoxicity rating 0-100 at 14 days after application
Summary of the method: as §1

[21] = tested on: ivyleaf morningglory (Ipomoea hederacea, IPOHE); assay: as above; conditions: pre-emerge, phytotoxicity rating 0-100 at 14 days after application
Summary of the method: as §1

[22] = tested on: barnyardgrass (Echinochloa crus-galli, ECHCG); assay: as above; conditions: pre-emerge, phytotoxicity rating 0-100 at 14 days after application
Summary of the method: as §1

## C#CCOc1c(Cl)cc(F)c(N2C(=O)C3=C(CCCC3)C2=O)c1NC(=O)c1ccc(F)cc1F [8-13]
[1]; 63 g ai/ha
  Post-emerge Herbicidal Activity CORN: 10
[1]; 125 g ai/ha
  Post-emerge Herbicidal Activity CORN: 40
[2]; 63 g ai/ha
  Post-emerge Herbicidal Activity RICE: 30
[2]; 125 g ai/ha
  Post-emerge Herbicidal Activity RICE: 70
[3]; 63 g ai/ha
  Post-emerge Herbicidal Activity AMARE: 100
[3]; 125 g ai/ha
  Post-emerge Herbicidal Activity AMARE: 100
[4]; 63 g ai/ha
  Post-emerge Herbicidal Activity CASOB: 30
[4]; 125 g ai/ha
  Post-emerge Herbicidal Activity CASOB: 50
[5]; 63 g ai/ha
  Post-emerge Herbicidal Activity DIGSA: 20
[5]; 125 g ai/ha
  Post-emerge Herbicidal Activity DIGSA: 10
[6]; 63 g ai/ha
  Post-emerge Herbicidal Activity ABUTH: 100
[6]; 125 g ai/ha
  Post-emerge Herbicidal Activity ABUTH: 100
[7]; 63 g ai/ha
  Post-emerge Herbicidal Activity SORHA: 10
[7]; 125 g ai/ha
  Post-emerge Herbicidal Activity SORHA: 20
[8]; 63 g ai/ha
  Post-emerge Herbicidal Activity SETVI: 30
[8]; 125 g ai/ha
  Post-emerge Herbicidal Activity SETVI: 30
[9]; 63 g ai/ha
  Post-emerge Herbicidal Activity CHEAL: 90
[9]; 125 g ai/ha
  Post-emerge Herbicidal Activity CHEAL: 90
[10]; 63 g ai/ha
  Post-emerge Herbicidal Activity IPOHE: 50
[10]; 125 g ai/ha
  Post-emerge Herbicidal Activity IPOHE: 60
[11]; 63 g ai/ha
  Post-emerge Herbicidal Activity ECHCG: 20
[11]; 125 g ai/ha
  Post-emerge Herbicidal Activity ECHCG: 40
[12]; rate 63 g ai/ha
  Pre-emerge Herbicidal Activity CORN: 0
[12]; rate 125 g ai/ha
  Pre-emerge Herbicidal Activity CORN: 0
[13]; rate 63 g ai/ha
  Pre-emerge Herbicidal Activity RICE: 10
[13]; rate 125 g ai/ha
  Pre-emerge Herbicidal Activity RICE: 10
[14]; rate 63 g ai/ha
  Pre-emerge Herbicidal Activity AMARE: 50
[14]; rate 125 g ai/ha
  Pre-emerge Herbicidal Activity AMARE: 70
[15]; rate 63 g ai/ha
  Pre-emerge Herbicidal Activity CASOB: 0
[15]; rate 125 g ai/ha
  Pre-emerge Herbicidal Activity CASOB: 0
[16]; rate 63 g ai/ha
  Pre-emerge Herbicidal Activity DIGSA: 0
[16]; rate 125 g ai/ha
  Pre-emerge Herbicidal Activity DIGSA: 40
[17]; rate 63 g ai/ha
  Pre-emerge Herbicidal Activity ABUTH: 90
[17]; rate 125 g ai/ha
  Pre-emerge Herbicidal Activity ABUTH: 100
[18]; rate 63 g ai/ha
  Pre-emerge Herbicidal Activity SORHA: 0
[18]; rate 125 g ai/ha
  Pre-emerge Herbicidal Activity SORHA: 30
[19]; rate 63 g ai/ha
  Pre-emerge Herbicidal Activity SETVI: 20
[19]; rate 125 g ai/ha
  Pre-emerge Herbicidal Activity SETVI: 40
[20]; rate 63 g ai/ha
  Pre-emerge Herbicidal Activity CHEAL: 100
[20]; rate 125 g ai/ha
  Pre-emerge Herbicidal Activity CHEAL: 70
[21]; rate 63 g ai/ha
  Pre-emerge Herbicidal Activity IPOHE: 0
[21]; rate 125 g ai/ha
  Pre-emerge Herbicidal Activity IPOHE: 0
[22]; rate 63 g ai/ha
  Pre-emerge Herbicidal Activity ECHCG: 0
[22]; rate 125 g ai/ha
  Pre-emerge Herbicidal Activity ECHCG: 30
